Drawing on patent US8912188B2, “Substituted quinoxaline carboxylic acids for the inhibition of PASK” (BioEnergenix, LLC, priority 2011, dated 2014), this text covers IC50 for 28 compounds.

The target in the assay is T1, PASK (Invitrogen) (Homo sapiens, UniProt Q96RG2).
T1 construct: IC50 Kinase Domain; purchased Invitrogen
T1 sequence (Q96RG2 999-1251 limits assumed): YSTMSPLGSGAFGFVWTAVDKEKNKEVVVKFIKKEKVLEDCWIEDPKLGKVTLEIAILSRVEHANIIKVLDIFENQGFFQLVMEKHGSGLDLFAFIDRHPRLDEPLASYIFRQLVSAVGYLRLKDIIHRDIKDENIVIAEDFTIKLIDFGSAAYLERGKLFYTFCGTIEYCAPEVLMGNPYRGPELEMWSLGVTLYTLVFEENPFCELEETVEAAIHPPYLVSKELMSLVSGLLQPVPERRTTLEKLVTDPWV
As to the kind of experiment: PAS Kinase FRET Assay. Format: biochemical. The note with it: PAS kinase TR-FRET assay (665 nm/615 nm), 2 hours at 25° C.; read-out: IC50 Kinase Domain. For orientation: In TR-FRET formats the signal depends on donor and acceptor labels being close together.
For orientation: IC50 means the midpoint of a concentration-inhibition curve. Regarding `CC(C)N(C)c1nc2cc(C(=O)O)ccc2nc1-c1ccc2c(c1)OC(F)(F)O2` [Example 42, 2-(2,2-Difluorobenzo[d][1,3]dioxol-5-yl)-3-(isopropyl(methyl)amino)quinoxaline-6-carboxylic acid], the IC50 was under 10 µM. For `CC(C)N(C)c1nc2cc(C(=O)O)ccc2nc1-c1ccc2scnc2c1` [Example 56, 2-(Benzo[d]thiazol-5-yl)-3-(isopropyl(methyl)amino)quinoxaline-6-carboxylic acid] the value was under 10 µM. `C[C@H]1CCCN1c1nc2cc(C(=O)O)ccc2nc1-c1coc2ccccc12` [Example 82, 2-(1-Benzofuran-3-yl)-3-[(2S)-2-methylpyrrolidin-1-yl]quinoxaline-6-carboxylic acid]: the IC50 is under 10 µM.

On to `CN(c1nc2cc(C(=O)O)ccc2nc1-c1ccc(F)cc1)[C@H]1CC[C@H](O)CC1` [Example 125, 2-(4-Fluorophenyl)-3-(((1r,4r)-4-hydroxycyclohexyl)(methyl)amino)quinoxaline-6-carboxylic acid], for which the IC50 was under 10 µM. Regarding `CCC1CCCCN1c1nc2cc(C(=O)O)ccc2nc1-c1ccc(F)cc1` (stereo not shown) [Example 142, 3-(2-Ethylpiperidin-1-yl)-2-(4-fluorophenyl)quinoxaline-6-carboxylic acid], the IC50 is under 10 µM. For `CC(C)N(C)c1nc2cc(C(=O)O)ccc2nc1-c1ccc2oncc2c1` [Example 50, 2-(1,2-Benzoxazol-5-yl)-3-[methyl(propan-2-yl)amino]quinoxaline-6-carboxylic acid] the value was under 10 µM; for `CC(C)N(C)c1nc2cc(C(=O)O)ccc2nc1-c1ccc(N2CCCC2)nc1` [Example 12, 3-(Isopropyl(methyl)amino)-2-(6-(pyrrolidin-1-yl)pyridin-3-yl)quinoxaline-6-carboxylic acid], over 10 µM; for `Cc1cc(F)ccc1-c1nc2ccc(C(=O)O)cc2nc1N1CCC[C@@H]1C` [Example 117, (S)-2-(4-Fluoro-2-methylphenyl)-3-(2-methylpyrrolidin-1-yl)quinoxaline-6-carboxylic acid], under 10 µM.

For `CC(C)N(C)c1nc2cc(C(=O)O)c(F)cc2nc1-c1ccc(F)cc1` [Example 123, 7-Fluoro-2-(4-fluorophenyl)-3-[methyl(propan-2-yl)amino]quinoxaline-6-carboxylic acid], the IC50 is under 10 µM. The value for `C[C@H]1CCCN1c1nc2cc(C(=O)O)ccc2nc1-c1cc2cc(F)ccc2o1` [Example 41, (S)-2-(5-Fluorobenzofuran-2-yl)-3-(2-methylpyrrolidin-1-yl)quinoxaline-6-carboxylic acid] was under 10 µM; that for `C[C@@H](c1ccccc1)N(C)c1nc2cc(C(=O)O)ccc2nc1-c1ccc(F)cc1` [Example 143, (S)-2-(4-Fluorophenyl)-3-(methyl(1-phenylethyl)amino)quinoxaline-6-carboxylic acid] was under 10 µM. For `CC(C)N(C)c1nc2cc(C(=O)O)ccc2nc1-c1occc1-c1ccccc1` [Example 83, 3-[Methyl(propan-2-yl)amino]-2-(3-phenylfuran-2-yl)quinoxaline-6-carboxylic acid] the value was under 10 µM. For the compound `CC(C)N(C)c1nc2cc(C(=O)O)ccc2nc1-c1ccc(C(N)=O)cc1` [Example 119, 2-(4-Carbamoylphenyl)-3-(isopropyl(methyl)amino)quinoxaline-6-carboxylic acid], the IC50 is under 10 µM. For `C[C@H]1CCCN1c1nc2cc(C(=O)O)ccc2nc1-c1ccc2[nH]ccc2c1` [Example 40, (S)-2-(1H-Indol-5-yl)-3-(2-methylpyrrolidin-1-yl)quinoxaline-6-carboxylic acid] the value was under 10 µM; for `CCN(CC)c1nc2cc(C(=O)O)ccc2nc1-c1cc2ccccc2o1` [Example 27, 2-(1-Benzofuran-2-yl)-3-(diethylamino)quinoxaline-6-carboxylic acid], under 10 µM; for `CC(C)N(C)c1nc2cc(C(=O)O)ccc2nc1-c1cc2cc(F)ccc2s1` [Example 24, 2-(5-Fluorobenzo[b]thiophen-2-yl)-3-(isopropyl(methyl)amino)quinoxaline-6-carboxylic acid], under 10 µM. For `COc1cc2nc(-c3ccc(F)cc3)c(N(C)C(C)C)nc2cc1C(=O)O` [Example 122, 2-(4-Fluorophenyl)-7-methoxy-3-[methyl(propan-2-yl)amino]quinoxaline-6-carboxylic acid] the value was over 10 µM; for `O=C(O)c1ccc2nc(-c3ccc(F)cc3)c(N3CCC(c4ccccn4)CC3)nc2c1` [Example 131, 2-(4-Fluorophenyl)-3-[4-(pyridin-2-yl)piperidin-1-yl]quinoxaline-6-carboxylic acid], under 10 µM; for `CC(C)N(C)c1nc2cc(C(=O)O)ccc2nc1-c1coc2ccccc12` [Example 1, 2-(Benzofuran-3-yl)-3-(isopropyl(methyl)amino)quinoxaline-6-carboxylic acid], under 10 µM. The value for `O=C(O)c1ccc2nc(-c3ccc4[nH]ccc4c3)c(N3CCCCCC3)nc2c1` [Example 37, 3-(Azepan-1-yl)-2-(1H-indol-5-yl)quinoxaline-6-carboxylic acid] was under 10 µM; that for `CS(=O)(=O)N1CCN(c2nc3cc(C(=O)O)ccc3nc2-c2ccc(F)cc2)CC1` [Example 130, 2-(4-Fluorophenyl)-3-(4-(methylsulfonyl)piperazin-1-yl)quinoxaline-6-carboxylic acid] was under 10 µM. Take `Cc1cc2cc(-c3nc4ccc(C(=O)O)cc4nc3N3CCN(c4ccccn4)C[C@@H]3C)ccc2[nH]1` [Example 99, (S)-2-(2-Methyl-1H-indol-5-yl)-3-(2-methyl-4-(pyridin-2-yl)piperazin-1-yl)quinoxaline-6-carboxylic acid]: the IC50 was under 10 µM. For `CC(C)N(C)c1nc2cc(C(=O)O)ccc2nc1-c1ccc2nccnc2c1` [Example 60, 3-(isopropyl(methyl)amino)-2,7′-biquinoxaline-6-carboxylic acid] the value was under 10 µM; for `O=C(O)c1ccc2nc(-c3cc4ccccc4s3)c(N3CCCCC3)nc2c1` [Example 53, 2-(Benzo[b]thiophen-2-yl)-3-(piperidin-1-yl)quinoxaline-6-carboxylic acid], under 10 µM. For `COc1ccc2[nH]c(-c3nc4ccc(C(=O)O)cc4nc3N(C)C(C)C)cc2c1` [Example 6, 3-(Isopropyl(methyl)amino)-2-(5-methoxy-1H-indol-2-yl)quinoxaline-6-carboxylic acid] the value was under 10 µM. For `O=C(O)c1ccc2nc(-c3ccc4[nH]ccc4c3)c(N3CCCCC3)nc2c1` [Example 65, 2-(1H-Indol-5-yl)-3-(piperidin-1-yl)quinoxaline-6-carboxylic acid] the value was under 10 µM; for `C[C@H]1CCCN1c1nc2cc(C(=O)O)c(O)cc2nc1-c1ccc(F)cc1` [Example 132, (S)-2-(4-Fluorophenyl)-7-hydroxy-3-(2-methylpyrrolidin-1-yl)quinoxaline-6-carboxylic acid], under 10 µM; for `C[C@H]1CCCN1c1nc2cc(C(=O)O)ccc2nc1-c1cc2ccc(F)cc2o1` [Example 32, (S)-2-(6-Fluorobenzofuran-2-yl)-3-(2-methylpyrrolidin-1-yl)quinoxaline-6-carboxylic acid], under 10 µM.
